From PMC12203311, “Design, synthesis, in silico and in vitro evaluation of pyrrole–indole hybrids as dual tubulin and aromatase inhibitors with potent anticancer activities” (RSC Advances, 2025)

How the values were obtained:
NCI-H226 = test: NCI60 five-dose screen; format: cell-based; details: Homo sapiens, NCI-H226, NSC lung cancer; for CC50: read-out: LC50 (the source's name)
MOLT-4 = test: NCI60 five-dose screen; format: cell-based; details: Homo sapiens, MOLT-4, leukemia; for CC50: read-out: LC50 (the source's name)
NCI-H460 = test: NCI60 five-dose screen; format: cell-based; details: Homo sapiens, NCI-H460, NSC lung cancer; for CC50: read-out: LC50 (the source's name)
HT29 = test: NCI60 five-dose screen; format: cell-based; details: Homo sapiens, HT-29, HT29, colon cancer; for CC50: read-out: LC50 (the source's name)
LOX IMVI = test: NCI60 five-dose screen; format: cell-based; details: Homo sapiens, melanoma; for CC50: read-out: LC50 (the source's name)
OVCAR-8 = test: NCI60 five-dose screen; format: cell-based; details: Homo sapiens, OVCAR-8, ovarian cancer; for CC50: read-out: LC50 (the source's name)
NCI-H322M = test: NCI60 five-dose screen; format: cell-based; details: Homo sapiens, NSC lung cancer; for CC50: read-out: LC50 (the source's name)
NCI-H522 = test: NCI60 five-dose screen; format: cell-based; details: Homo sapiens, NCI-H522, NSC lung cancer; for CC50: read-out: LC50 (the source's name)
CAKI-1 = test: NCI60 five-dose screen; format: cell-based; details: Homo sapiens, CAKI-1, renal cancer; for CC50: read-out: LC50 (the source's name)
HCT-15 = test: NCI60 five-dose screen; format: cell-based; details: Homo sapiens, HCT-15, colon cancer; for CC50: read-out: LC50 (the source's name)
UACC-257 = test: NCI60 five-dose screen; format: cell-based; details: Homo sapiens, UACC-257, melanoma; for CC50: read-out: LC50 (the source's name)
HOP-62 = test: NCI60 five-dose screen; format: cell-based; details: Homo sapiens, HOP-62, NSC lung cancer; for CC50: read-out: LC50 (the source's name)
HOP-92 = test: NCI60 five-dose screen; format: cell-based; details: Homo sapiens, HOP-92, NSC lung cancer; for CC50: read-out: LC50 (the source's name)
BT-549 = test: NCI60 five-dose screen; format: cell-based; details: Homo sapiens, BT-549, breast cancer; for CC50: read-out: LC50 (the source's name)
EKVX = test: NCI60 five-dose screen; format: cell-based; details: Homo sapiens, NSC lung cancer; for CC50: read-out: LC50 (the source's name)
NCI/ADR-RES = test: NCI60 five-dose screen; format: cell-based, human; details: Homo sapiens, ovarian cancer; for CC50: read-out: LC50 (the source's name)
786-0 = test: NCI60 five-dose screen; format: cell-based; details: Homo sapiens, 786-0, renal cancer; for CC50: read-out: LC50 (the source's name)
SNB-19 = test: NCI60 five-dose screen; format: cell-based; details: Homo sapiens, SNB-19, CNS cancer; for CC50: read-out: LC50 (the source's name)
Human CYP19 (aromatase) = biological target: T1, Human CYP19 (aromatase) (Homo sapiens, UniProt P11511); test: Aromatase inhibition assay (DBF fluorometric substrate); format: biochemical; details: active defined as IC50 < 12.5 µM
T1 construct: purchased GENTEST, Woburn, MA 456260; host or cells: baculovirus/insect cells
T1 sequence (P11511 1-503): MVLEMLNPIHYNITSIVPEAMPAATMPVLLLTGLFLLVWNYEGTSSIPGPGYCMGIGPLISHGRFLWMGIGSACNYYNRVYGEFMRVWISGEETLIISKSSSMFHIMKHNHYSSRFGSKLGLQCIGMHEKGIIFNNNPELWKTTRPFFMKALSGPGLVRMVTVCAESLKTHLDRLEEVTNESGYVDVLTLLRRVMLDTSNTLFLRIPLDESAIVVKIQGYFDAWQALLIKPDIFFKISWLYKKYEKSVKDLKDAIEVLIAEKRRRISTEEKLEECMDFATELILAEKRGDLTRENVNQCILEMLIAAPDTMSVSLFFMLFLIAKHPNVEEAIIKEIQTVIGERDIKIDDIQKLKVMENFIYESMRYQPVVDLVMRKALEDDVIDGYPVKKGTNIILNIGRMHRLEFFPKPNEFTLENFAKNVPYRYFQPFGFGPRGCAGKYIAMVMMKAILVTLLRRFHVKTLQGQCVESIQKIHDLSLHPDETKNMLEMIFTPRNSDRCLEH
Procedure: Aromatase enzyme was purchased from GENTEST, Woburn, MA01801, USA (Supersom human CYP19+oxidoreductase, baculovirus/insect cell-expressed; Product No. 456260). The aromatase inhibitory activity was performed using Human CYP19 enzymes and DBF as a fluorometric substrate as described by Stresser, et al.[41] with minor modifications. The mixture, containing 100 µL of cofactor/serial dilution buffer was pre-incubated in 37 °C for 10 min. […] After incubation at 37 °C for 30 min, the reaction was stopped by addition of 50 µL of 2.2 M NaOH. Fluorescence signal was monitored using an excitation wavelength of 490 nm and emission wavelength of 530 nm.

M14 = test: NCI60 five-dose screen; format: cell-based; details: Homo sapiens, M14, melanoma; for CC50: read-out: LC50 (the source's name)

SMILES | GI50 (NCI-H226) | CC50 (NCI-H226) | GI50 (MOLT-4) | CC50 (MOLT-4) | GI50 (NCI-H460) | CC50 (NCI-H460) | GI50 (HT29) | CC50 (HT29) | GI50 (LOX IMVI) | CC50 (LOX IMVI) | GI50 (OVCAR-8) | CC50 (OVCAR-8) | GI50 (NCI-H322M) | CC50 (NCI-H322M) | GI50 (NCI-H522) | CC50 (NCI-H522) | GI50 (CAKI-1) | CC50 (CAKI-1) | GI50 (HCT-15) | CC50 (HCT-15) | further results
O=C(N/N=C/c1cc[nH]c1)c1[nH]c2ccc(Br)cc2c1-c1ccccc1 [Derivative 3b, (E)-N′-((1H-Pyrrol-3-yl)methylene)-5-bromo-3-phenyl-1H-indole-2-carbohydrazide] | 2.52 µM | 51.2 µM | 1.52 µM | > 100 µM | 0.657 µM | 46 µM | 0.68 µM | 34.5 µM | 0.916 µM | 38.7 µM | 1.21 µM | 38.6 µM | 2.38 µM | 37.2 µM | 0.925 µM | 24 µM | 0.776 µM | 44.1 µM | 0.918 µM | 34 µM | GI50 (UACC-257): 8.22 µM; CC50 (UACC-257): 47.8 µM; GI50 (HOP-62): 2.01 µM; CC50 (HOP-62): 61.4 µM; GI50 (HOP-92): 1.87 µM; CC50 (HOP-92): 50.3 µM; GI50 (BT-549): 4.53 µM; CC50 (BT-549): 52.3 µM; GI50 (EKVX): 4.41 µM; CC50 (EKVX): 41.7 µM; GI50 (NCI/ADR-RES): 0.636 µM; CC50 (NCI/ADR-RES): 27.1 µM; GI50 (786-0): 5.46 µM; CC50 (786-0): 77.2 µM; GI50 (SNB-19): 2.55 µM; CC50 (SNB-19): 39.8 µM; IC50 (Human CYP19 (aromatase)): 11 ± 1.3 µM; GI50 (M14): 1.58 µM; CC50 (M14): 45.8 µM
O=C(N/N=C/c1ccc([N+](=O)[O-])[nH]1)c1[nH]c2ccc(Br)cc2c1-c1ccccc1 [Derivative 3p, (E)-5-Bromo-N′-((5-nitro-1H-pyrrol-2-yl)methylene)-3-phenyl-1H-indole-2-carbohydrazide] | 2.43 µM | 46.9 µM | 0.537 µM | > 100 µM | 0.421 µM | 45.9 µM | 0.55 µM | 43.9 µM | 0.519 µM | 35.8 µM | 1.02 µM | 39 µM | 11 µM | 53.3 µM | 0.588 µM | 19.8 µM | 0.411 µM | 34.9 µM | 0.607 µM | 35.7 µM | GI50 (UACC-257): 3.12 µM; CC50 (UACC-257): 48.2 µM; GI50 (HOP-62): 0.606 µM; CC50 (HOP-62): 39.5 µM; GI50 (HOP-92): 1.79 µM; CC50 (HOP-92): 47.3 µM; GI50 (BT-549): 1.52 µM; CC50 (BT-549): 28.4 µM; GI50 (EKVX): 5.37 µM; CC50 (EKVX): 45.7 µM; GI50 (NCI/ADR-RES): 0.285 µM; CC50 (NCI/ADR-RES): 16.2 µM; GI50 (786-0): 0.803 µM; CC50 (786-0): 41.4 µM; GI50 (SNB-19): 3.34 µM; CC50 (SNB-19): 42.4 µM; IC50 (Human CYP19 (aromatase)): 1.4 ± 0.3 µM; GI50 (M14): 0.652 µM; CC50 (M14): 37 µM
O=C(N/N=C/c1cc([N+](=O)[O-])c[nH]1)c1[nH]c2ccc(Br)cc2c1-c1ccccc1 [Derivative 3q, (E)-5-Bromo-N′-((4-nitro-1H-pyrrol-2-yl)methylene)-3-phenyl-1H-indole-2-carbohydrazide] | 3.39 µM | > 100 µM | 0.657 µM | > 100 µM | 0.328 µM | > 100 µM | 0.469 µM | > 100 µM | 0.647 µM | > 100 µM | 10.2 µM | > 100 µM | 46.4 µM | > 100 µM | 0.722 µM | > 100 µM | 0.53 µM | > 100 µM | 0.504 µM | > 100 µM | GI50 (UACC-257): 2.58 µM; CC50 (UACC-257): > 100 µM; GI50 (HOP-62): 1.26 µM; CC50 (HOP-62): > 100 µM; GI50 (HOP-92): 11.6 µM; CC50 (HOP-92): > 100 µM; GI50 (BT-549): 2.47 µM; CC50 (BT-549): > 100 µM; GI50 (EKVX): > 100 µM; CC50 (EKVX): > 100 µM; GI50 (NCI/ADR-RES): 0.434 µM; CC50 (NCI/ADR-RES): > 100 µM; GI50 (786-0): 2.21 µM; CC50 (786-0): > 100 µM; GI50 (SNB-19): 6.25 µM; CC50 (SNB-19): > 100 µM; IC50 (Human CYP19 (aromatase)): > 12.5 µM; aromatase inhibition (Human CYP19 (aromatase)): inactive against aromatase; GI50 (M14): 0.574 µM; CC50 (M14): > 100 µM
